{"source": "patent US20070016978A1", "about": "“PLANTS HAVING AN ENHANCED RESISTANCE TO NECROTROPHIC PATHOGENS AND METHOD OF MAKING SAME” (priority 2005, published 2007)", "key": {"[1]": {"system": "C. higginsianum", "experiment": "Anthracnose lesion development on Arabidopsis leaves infiltrated with G3P before infection", "assay_type": "in vivo", "details": "infiltration of G3P into Arabidopsis leaves prior to infection", "procedure": "(§1) Several lines of evidence point to G3P levels as being of primary importance. […] Secondly, the gli1 and gly1 plants, with lower levels of G3P, are slightly more susceptible to C. higginsianum.\nInoculation with Peronospora parasitica Emco5 is conducted as described in Kachroo et al., 2001. Inoculation with Colletotrichum higginssianum is carried out by spraying the spores at a concentration of […] and spot inoculating at a concentration of 104-105/ml. After inoculation, the plants are covered with a transparent plastic dome and kept in a growth chamber at 22° C., 65% relative humidity and 14 hour photoperiod. Infections are evaluated every day and scored for disease at 4-6 dpi. Inoculation with Pseudomonas syringae is conducted as described in Shah et al., 2001."}, "[2]": {"system": "C. higginsianum", "experiment": "Growth of C. higginsianum in liquid Fries minimal medium", "assay_type": "cell-based, Colletotrichum higginsianum", "details": "G3P added in minimal medium containing a preferred carbon source like sucrose or glycerol; 10 mM G3P, 5 days, 30° C.", "text": "as §1"}, "[3]": {"system": "PDF1.2 gene", "experiment": "PDF1.2 gene expression in response to JA (RNA gel blot)", "assay_type": "in vivo, Arabidopsis", "details": "ssi2 fad7 and ssi2 fad7 fad8 plants, 50 μM JA, 48 h post treatment", "procedure": "Small-scale extraction of RNA from one or two leaves is performed in the TRIzol reagent (Invitrogen, Gaithersburg, Md.) following the manufacturer's instructions. Northern blot analysis and synthesis of random primed probes for PR-1, PR-2 and PDF1.2 are carried out as described in Kachroo et al., 2001.\n(§2) JA treatments are carried out as described in Kachroo et al., 2001.\nFIGS. 5(A)-5(I) illustrate glycerol-mediated effects on mutants impaired in various fatty add desaturation (fad) steps and double mutant analysis of ssi2 in different fad backgrounds. […] RNA gel blot analysis was performed on […] of total RNA extracted from 4-week-old soil-grown plants. Ethidium bromide staining of rRNA was used as a loading control. […] The values presented are averages of three replicates. FIG. 5(D) is a plot showing glycerol-induced changes in the 18:1 levels in leaf tissue of four-week-old plants. The ssi2 gly1 and ssi2 act1 plants were used as controls. […] FIG. 5(F) comprises a series of microscopies of trypan blue-stained leaves from ssi2 and various ssi2 fad double- and triple-mutant plants. FIG. 5(G) illustrates expression of the PR-1 and PR-2 genes in wt, ssi2, and various ssi2 fad double and triple mutant plants. […] Samples were harvested 48 h post treatment and analyzed by RNA gel blot analysis performed on 7 μg of total RNA. […]"}, "[4]": {"system": "Peronospora parasitica biotype Emco5", "details": "glycerol-treated npr1 plants, glycerol 72 h prior to inoculation"}, "[5]": {"system": "18:1 levels", "experiment": "Leaf 18:1 content after glycerol application (GC)", "assay_type": "in vivo, Arabidopsis", "details": "wt and plants impaired in the SA signaling pathway, three days after glycerol application", "procedure": "(§3) SA and SA glucoside (SAG) are extracted and measured from 0.2-0.3 g of fresh weight leaf tissue, as described in Chandra-Shekara et al., 2004. FA analysis is carried out as described in Dahmer et al., 1989; and He et al., 2002. Lipids are extracted as described in Welti et al., 2002. Lipid profiles and acyl group identification are carried out using an automated electrospray ionization-tandem mass spectrometry facility available at the Kansas Lipidomics Center.\nas §2\n(§4) Ethidium bromide staining of rRNA used as a loading control. FIG. 3(D) is a graph showing growth of P. parasitica biotype Emco5 on various plant genotypes listed at the left. The Landsberg (Ler) ecotype used as the resistant control. […] The shade of each box indicates the severity of infection, based on the number of sporangiophores per cotyledon (see key at the right). FIG. 3(E) is a plot showing glycerol-induced changes in the 18:1 levels in leaf tissue of 4-week-old plants."}, "[6]": {"system": "PR-1 gene", "details": "exogenous application on wt plants; cited from earlier work"}, "[7]": {"system": "SA and SAG levels", "experiment": "Endogenous SA and SAG levels in leaves of glycerol-treated plants", "assay_type": "in vivo, Arabidopsis", "details": "for induction in SA levels / induction in the SAG levels: glycerol- versus water-treated, 50 mM glycerol", "procedure": "as §3, §2, §4"}}}
{"smiles": "O=P(O)(O)OCC(O)CO", "note": "(centres unmarked) [G3P, glycerol-3-phosphate]", "values": [{"measurement": "necrosis triggered by the fungus at the site of entry", "setting": "[1]", "result": "significantly reduced necrosis"}, {"measurement": "inhibition of fungal growth", "setting": "[2]", "result": "~3", "unit": "fold"}]}
{"smiles": "CC/C=C\\C[C@H]1C(=O)CC[C@@H]1CC(=O)O", "note": "[JA, jasmonic acid]", "values": [{"measurement": "PDF1.2 expression", "setting": "[3]", "result": "basal level expression of PDF1.2"}]}
{"smiles": "OCC(O)CO", "note": "[glycerol]", "values": [{"measurement": "reduction in the number of susceptible plants", "setting": "[4]", "result": "about 60%"}, {"measurement": "leaf 18:1 levels", "setting": "[5]", "result": "drastic reduction in their 18:1 levels"}, {"measurement": "PR-1 gene expression", "setting": "[6]", "result": "induction of PR-1 gene expression"}, {"measurement": "induction in SA levels", "setting": "[7]; Columbia-O (Col-O) plants", "result": 13, "unit": "fold"}, {"measurement": "induction in the SAG levels", "setting": "[7]; Columbia-O (Col-O) plants", "result": 10, "unit": "fold"}, {"measurement": "induction in SA levels", "setting": "[7]; Nossen (No) plants", "result": 10, "unit": "fold"}, {"measurement": "induction in the SAG levels", "setting": "[7]; Nossen (No) plants", "result": 8, "unit": "fold"}, {"measurement": "SA levels upon glycerol treatment, lower than in wt plants", "setting": "[7]; fad7 and fad7 fad8 plants versus glycerol-treated wt", "result": 3, "unit": "fold"}]}
